The values below come from publication PMC5533769, “A cell-based high-throughput screening assay system for inhibitor compounds of antigen presentation by HLA class II molecule” (Scientific Reports, 2017).

Usually IC50 stands for the concentration needed to halve the response being measured.

Where only a bound is given, the exact number is not on record here.

In series [1] the test system is DR15-expressing 3T3 cells. As to conditions: crystal violet (A550); 1 h with CLIP, then MBP83-99 6 h.
The target in series [2] is T1, DR15 (DRB1*15:01) (Homo sapiens, UniProt P01903+P01911, OTHER:DRA*01:01ANDEACHDRB1VECTORSWEREINTRODUCEDINTOTHECELLSAT1:1RATIO/OTHER:MBP83-99TODR15(DRB1*15:01)).
T1 construct: The open reading frame for DRA or DRB1 were flanked with Xho 1 and EcoR1 sites; expressed in transfected cells
Nature of the series: 96-well competition assay: inhibition of MBP83-99 loading to DR15-expressing 3T3 cells. Type of series: binding.

The target of series [3] is T2, DR1 (DRB1*01:01) (Homo sapiens, UniProt P01903+P01911, A100R/D57E/F55L/F60I/F76Y/I96L/L162R/M171V/P40L/Q125E/R42F/V115G/Y59C).
T2 construct: The open reading frame for DRA or DRB1 were flanked with Xho 1 and EcoR1 sites; expressed in transfected cells
Description: 96-well competition assay: inhibition of MBP83-99 loading to DR1-expressing 3T3 cells. The class given is binding.

For series [4], the target named is T3, DR15 (DRB1*15:01) (Homo sapiens, UniProt P01903+P01911).
T3 construct: The open reading frame for DRA or DRB1 were flanked with Xho 1 and EcoR1 sites; expressed in transfected cells
Nature of the series: 96-well plate peptide binding assay, DR15-expressing 3T3 cells, SA-β-gal/4MUG. The note with it: parental vs. DR15-expressing 3T3 cells; MBP83-99 5 µM. As to the method:
(§1) Figure 3 Detection and screening system of antigen peptide binding to HLA on 3T3 cells in 96 well plate. (A) Scheme of the detection of HLA-bound peptides on cells in 96 well plates. HLA expressing cells are incubated with biotinylated antigen peptides, and bound peptides are probed with SA-β-gal, followed by enzyme reaction with chromogenic (ONPG) or fluorogenic substrate (4MUG). (B) Detection of HLA-bound peptides on 3T3 cells using fluorogenic substrate (4MUG) in 96 well plates. Two 96-well plates of DR15-expressing cells were incubated with MBP83-99 for 6 h, fixed with glutaraldehyde, and subjected to blocking with a blocking solution as detailed in the methods section. Thereafter, biotinylated peptides in one plate were probed with low concentration of SA-β-gal (3,000-fold dilution) and detected by using 4MUG. The other plate was analysed using a chromogenic substrate (ONPG) in Supplementary Fig. 3. (C) Time and concentration dependence of MBP83-99 binding to DR15-expressing 3T3 cells. The assay was conducted as in (B).
(§2) Unless otherwise described, the assay was conducted as follows. […] The reaction was stopped by addition of 100 µL of 0.5 M Na2CO3, and fluorescence intensity (Ex: 365 nm, Em: 450 nm) was measured by using a plate reader (Spectra Max plus, Molecular Devices, Sunnyvale, CA, USA). Wells devoid of cells and incubation with biotinylated peptide, but otherwise treated by using the same experimental procedure, were set as blank, and the mean fluorescence value for the wells was subtracted. The apparent Kd values for the binding of MBP83-99 and DR1 (DRB1*01:01) or DR15 (DRB1*15:01) was calculated by double reciprocal plot (1/[P-HLA] = Kd/[HLA]total [P] + 1/[HLA]total; where P represents peptide) or Scatchard plot ([P-HLA]/[P] = [HLA]total/Kd − [P-HLA]/Kd) after subtracting values for HLA-independent peptide binding (parental 3T3 cells) from the respective cells in a peptide concentration dependency experiment. […]

Series [5] addresses T1, DR15 (DRB1*15:01). The series is described as above. The note with it: live DR15-expressing 3T3, 96-well, 4MUG, 8-h incubation, parental binding subtracted. As to the method: as §1, §2
In series [6] the target is T2, DR1 (DRB1*01:01). Nature of the series: 96-well plate peptide binding assay, DR1-expressing 3T3 cells, SA-β-gal/4MUG. As to conditions: for Kd: live DR1-expressing 3T3, 96-well, 4MUG, parental binding subtracted.
Series [7] has as its target HLA-DR15 (DRA*01:01/DRB1*15:01) (Homo sapiens, UniProt P01903+P01911). Nature of the series: FACS binding of biotinylated peptide to HLA-DR15 on HEK293T cells. As to conditions: SA-PE, HEK293T transiently expressing DRA*01:01 + DRB1*15:01, biotinylated peptide 30 µM, 5 h (>5 h), 3 to 6 independent experiments.
For series [8], the system named is HLA-DR (DRB1*01:01, DRB1*04:05, DRB1*09:01, DRB1*15:01). Nature of the series: FACS binding of biotinylated peptide to panel of HLA-DR on stable 3T3 cells. The note with it: SA-PE, […], biotinylated peptide 30 µM overnight. The arrangement: species or system human. Background: Flow cytometry measures light scatter and fluorescence of single cells or particles in a stream.

For series [9], the target named is T4, HLA-DR1 (DRA*01:01/DRB1*01:01) (Homo sapiens, UniProt P01903+P01911, A100R/D57E/F55L/F60I/F76Y/I96L/L162R/M171V/P40L/Q125E/R42F/V115G/Y59C). Nature of the series: FACS binding of biotinylated peptide to HLA-DR1 on stable 3T3 cells. As to conditions: SA-PE, stable 3T3, DRA*01:01 + DRB1*01:01, biotinylated peptide 30 µM overnight.
Series [10] deals with HLA-DR (DRB1*01:01, DRB1*04:05, DRB1*09:01, DRB1*15:01). Description: FACS binding of biotinylated peptide to panel of HLA-DR on HEK293T cells. The arrangement: species or system human.
For series [11], the system named is DR1 (DRB1*01:01) and DR4 (DRB1*04:01). As to conditions: HLA-DRB1*01:01 and DRB1*04:01; ref [4], [5]; cited from earlier work. The text has this: An array of autoimmune diseases, including rheumatoid arthritis (RA) and multiple sclerosis (MS), are associated with particular alleles of HLA-DRB1[1], [3]. […] On ...
For series [12], the target named is T4, HLA-DR1 (DRA*01:01/DRB1*01:01). Nature of the series: FACS binding of biotinylated peptide to HLA-DR1 on HEK293T cells. As to conditions: SA-PE, biotinylated peptide 30 µM, >5 h, 3 to 6 independent experiments.
In series [13] the target is T3, DR15 (DRB1*15:01). Description: 96-well competition assay: inhibition of MBP83-99 loading to DR15-expressing 3T3 cells. The note with it: DR15-expressing 3T3; 1 h pre-incubation, then MBP83-99 6 h; 4MUG. The class given is binding.

Regarding `CSCC[C@H](NC(=O)[C@H](CCCNC(=N)N)NC(=O)[C@H](CCSC)NC(=O)[C@H](CCCCN)NC(=O)[C@H](CO)NC(=O)[C@@H](NC(=O)[C@@H]1CCCN1C(=O)[C@@H](N)CCCCN)C(C)C)C(=O)N[C@@H](C)C(=O)N[C@H](C(=O)N1CCC[C@H]1C(=O)N[C@@H](CC(C)C)C(=O)N[C@@H](CC(C)C)C(=O)N[C@@H](CCSC)C(=O)N[C@@H](CCC(N)=O)C(=O)N[C@@H](C)C(=O)N[C@@H](CC(C)C)C(=O)O)[C@@H](C)O` [CLIP102-118, Class II-associated invariant chain peptide (CLIP) 102–118], the “Cell number after binding assay (cytotoxicity), DR15 cells” value in series [1] is “no difference in the cell number”. For the same compound, the IC50 on DR15 (DRB1*15:01) [2] is 9 µM; at DR1 (DRB1*01:01) [3], 8 µM. In addition, the Kd came to 3 µM at DR15 (DRB1*15:01) [2] and 5 µM at DR1 (DRB1*01:01) [3]. In addition, the “Cell number after binding assay (cytotoxicity), DR1 cells” value in the series on DR1-expressing 3T3 cells is given as “no difference in the cell number”.

For `CC[C@H](C)[C@H](NC(=O)[C@H](CC(N)=O)NC(=O)[C@H](CCCCN)NC(=O)[C@H](Cc1ccccc1)NC(=O)[C@H](Cc1ccccc1)NC(=O)[C@H](Cc1c[nH]cn1)NC(=O)[C@@H](NC(=O)[C@@H](NC(=O)[C@@H]1CCCN1C(=O)[C@H](CC(N)=O)NC(=O)[C@@H](N)CCC(=O)O)C(C)C)C(C)C)C(=O)N[C@H](C(=O)N[C@H](C(=O)N1CCC[C@H]1C(=O)N[C@@H](CCCNC(=N)N)C(=O)N[C@H](C(=O)N1CCC[C@H]1C(=O)O)[C@@H](C)O)[C@@H](C)O)C(C)C` [MBP83-99, myelin basic protein (MBP) 83–99], at DR15 (DRB1*15:01) [4], the “HLA-independent binding share of apparent signal, DR15 cells” value was < 10%. Besides, the Kd on DR15 (DRB1*15:01) [5] (Scatchard plot, R² = 0.8781, read-out: apparent Kd, DR15, Scatchard plot) stood at 3 µM; at DR15 (DRB1*15:01) [5] (double reciprocal plot, R² = 0.9378, read-out: apparent Kd, DR15, double reciprocal plot), 2 µM; on DR1 (DRB1*01:01) [6] (Scatchard plot, R² = 0.8216, read-out: apparent Kd, DR1, Scatchard plot), 14 µM; at DR1 (DRB1*01:01) [6] (double reciprocal plot, R² = 0.99, read-out: apparent Kd, DR1, double reciprocal plot) it was 10 µM. Further, at DR1 (DRB1*01:01) [6] (parental vs. DR1-expressing 3T3 cells, MBP83-99 5 µM), the “HLA-independent binding share of apparent signal, DR1 cells” value is < 30%.

Turning to “GIAGFKGEQGPKGEP [CII263-272, type II collagen (CII) 263–272, biotinylated type II collagen peptide]”, in series [7], the “Peptide binding (MFI), HLA-DR15” value is reported as “Significant binding”. In addition, the “Peptide binding across HLA-DR genotypes on 3T3” value in [8] is “not at all to other DR-expressing cells”. Besides, in [9], the “Peptide binding, DR1 on 3T3” value is listed as “very weakly”. In [10], the “Binding MFI compared with MBP83-99” value is “far less than that for MBP83-99 binding”. In series [11], the “Presentation by DR1 and DR4” value was “present peptide from type II collagen”. Further, in [12], the “Peptide binding (MFI), HLA-DR1” value is “Significant binding”.

In the case of “LMAKARQKVLMPSTMLP [scCLIP, scramble peptide (scCLIP), scramble version of the CLIP peptide]”, the “Inhibitory effect on MBP83-99 loading, DR15” value on DR15 (DRB1*15:01) [13] is listed as “no inhibitory effect”. In addition, at DR1 (DRB1*01:01) [3] (DR1-expressing 3T3, 1 h pre-incubation, then MBP83-99 (5 µM) 6 h, 4MUG), the “Inhibitory effect on MBP83-99 loading, DR1” value is recorded as “no inhibitory effect”.
